According to EPA's ToxValDB 9.5 (doi:10.2903/j.efsa.2008.176r):
In brackets after ≈: the same amount, converted by molar mass.

How the values were obtained:
Apis mellifera = conditions: acute; duration: 48 hours; oral; unspecified; mortality
Canidae = conditions: chronic; duration: 1 years; oral; Dog Other; histopathology: nonneoplastic
Colinus virginianus = conditions: oral
Daphnia magna = conditions: chronic/long-term; duration: 21 days; reproduction
Hypoaspis aculeifer = conditions: chronic/long-term
Mus musculus = conditions: developmental; development
Oryctolagus sp. = conditions: developmental; development
Rattus norvegicus = conditions: oral; for LD50: acute, mortality
[1] = reproduction developmental, diet

Row | Structure (SMILES) | LD50 (Apis mellifera) [µg/piece] | NOAEL (Canidae) [mg/kg-day] | LC50 (Colinus virginianus; acute, diet, mortality) [mg/kg-day] | LD50 (Colinus virginianus; acute, mortality) [mg/kg-day] | LOEL (Colinus virginianus; [1]) [mg/kg-day] | NOEL (Colinus virginianus; [1]) [mg/kg-day] | NOEC (Daphnia magna) [mg/L] | NOEC (Hypoaspis aculeifer) [mg/kg] | LOAEL (Mus musculus) [mg/kg-day] | LC50 (Oncorhynchus mykiss; acute, duration: 96 hours, mortality) [µg/mL] | NOEC (Oncorhynchus mykiss; chronic/long-term, duration: 83 days, growth) [mg/L] | NOEL (Oryctolagus sp.) [mg/kg-day] | LD50 (Rattus norvegicus) [mg/kg-day] | NOEL (Rattus norvegicus; reproduction developmental, diet, body weight) [mg/kg-day] | LC50 (Tagia sp.; acute, duration: 14 days, mortality) [mg/kg] | NOEC (Tagia sp.; chronic/long-term, duration: 8 weeks, reproduction) [mg/kg]
1 | CC(C)(C)C(O)(CCc1ccc(Cl)cc1)Cn1cncn1 (stereo not drawn) [Tebuconazole] | > 83 | 3 | > 703 | 1990 | 12.4 | 5.8 | 0.01 | 50 | 10 | 4.4 (≈ 14.3 µM) | 0.012 | 10 | 1700 | 10 | 1380 | 10
2 | NC(Cc1ncn[nH]1)C(=O)O (stereo not drawn) [1,2,4-Triazole-3-alanine] |  |  | > 1370 |  |  |  |  |  |  |  |  |  | > 5000 |  |  | 
